Experimental data as given in ChEMBL document CHEMBL4382291, “Aminopyrazole Carboxamide Bruton's Tyrosine Kinase Inhibitors. Irreversible to Reversible Covalent Reactive Group Tuning” (ACS Med Chem Lett, 2019).

What was measured:
[1] = molecular target: Proto-oncogene tyrosine-protein kinase Src (Homo sapiens, UniProt P12931); experiment: Inhibition of full-length recombinant human C-terminal His-tagged SRC cytoplasmic domain expressed in baculovirus expression system using FAM-Srctide peptide as substrate preincubated for 1 hr followed by substrate addition and measured after 1 hr by TR-FRET Lanthascreen assay
[2] = molecular target: Tyrosine-protein kinase BTK (Homo sapiens, UniProt Q06187, C481S); experiment: Inhibition of full-length human C-terminal His6-tagged BTK C481S mutant expressed in Sf9 insect cells using FAM-Srctide peptide as substrate preincubated for 1 hr followed by substrate addition and measured after 1 hr by TR-FRET Lanthascreen assay
[3] = Cytotoxicity against human THLE cells; assay type: cell-based
[4] = molecular target: T1, Tyrosine-protein kinase BTK (Homo sapiens, UniProt Q06187)
Description: Inhibition of full-length human His-tagged BTK expressed in baculovirus expression system using FAM-Srctide peptide as substrate preincubated for 1 hr followed by substrate addition and measured after 1 hr by TR-FRET Lanthascreen assay

[5] = molecular target: T1, Tyrosine-protein kinase BTK; remark: listed apart in the source
Description: Reversible inhibition of full-length human His-tagged BTK expressed in baculovirus expression system assessed as apparent dissociation half life by kinase tracer 236 based TR-FRET assay

[6] = molecular target: Epidermal growth factor receptor (Homo sapiens, UniProt P00533)
[7] = molecular target: T1, Tyrosine-protein kinase BTK; experiment: Inhibition of BTK in human whole blood assessed as reduction in anti-human IgE antibody-stimulated histamine release pretreated for 2 hrs followed by anti-human IgE antibody-stimulation and measured after 30 mins by ELISA; assay type: tissue-based
[8] = molecular target: T1, Tyrosine-protein kinase BTK; experiment: Inhibition of BTK in goat anti-human IgM F(ab')2-stimulated human whole blood assessed as suppression of CD69 expression on B cells pretreated for 1 hr followed by goat anti-human IgM F(ab')2-stimualtion and measured after 3 hrs by Fix/Lyse reagent based flow cytometry; assay type: tissue-based
[9] = Clearance in human microsomes; assay type: ADME, Microsome
[10] = Permeability in RRCK cells; assay type: ADME, cell-based, Canis lupus familiaris, MDCKII-LE; conditions: dog, MDCK; read-out: permeability
[11] = Oral bioavailability in Wistar Han rat at 1 mg/kg administered via gavage by LC-MS/MS analysis; assay type: ADME, organism-based; conditions: in vivo

Sequence of Proto-oncogene tyrosine-protein kinase Src (P12931 2-536 limits assumed): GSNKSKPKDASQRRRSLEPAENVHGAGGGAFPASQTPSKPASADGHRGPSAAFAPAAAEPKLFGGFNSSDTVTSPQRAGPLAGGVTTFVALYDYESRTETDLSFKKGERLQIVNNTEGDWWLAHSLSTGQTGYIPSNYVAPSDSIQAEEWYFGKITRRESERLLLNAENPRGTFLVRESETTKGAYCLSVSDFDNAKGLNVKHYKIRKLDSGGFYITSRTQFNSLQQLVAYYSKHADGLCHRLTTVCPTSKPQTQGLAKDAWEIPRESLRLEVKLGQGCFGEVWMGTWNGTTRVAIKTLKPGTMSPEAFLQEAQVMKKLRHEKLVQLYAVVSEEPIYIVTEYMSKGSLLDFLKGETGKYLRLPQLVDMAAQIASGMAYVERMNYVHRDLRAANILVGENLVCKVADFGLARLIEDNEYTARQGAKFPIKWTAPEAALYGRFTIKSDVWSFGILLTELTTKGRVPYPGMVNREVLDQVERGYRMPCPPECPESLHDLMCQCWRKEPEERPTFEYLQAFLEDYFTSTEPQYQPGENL
Sequence of Epidermal growth factor receptor (P00533 whole entry): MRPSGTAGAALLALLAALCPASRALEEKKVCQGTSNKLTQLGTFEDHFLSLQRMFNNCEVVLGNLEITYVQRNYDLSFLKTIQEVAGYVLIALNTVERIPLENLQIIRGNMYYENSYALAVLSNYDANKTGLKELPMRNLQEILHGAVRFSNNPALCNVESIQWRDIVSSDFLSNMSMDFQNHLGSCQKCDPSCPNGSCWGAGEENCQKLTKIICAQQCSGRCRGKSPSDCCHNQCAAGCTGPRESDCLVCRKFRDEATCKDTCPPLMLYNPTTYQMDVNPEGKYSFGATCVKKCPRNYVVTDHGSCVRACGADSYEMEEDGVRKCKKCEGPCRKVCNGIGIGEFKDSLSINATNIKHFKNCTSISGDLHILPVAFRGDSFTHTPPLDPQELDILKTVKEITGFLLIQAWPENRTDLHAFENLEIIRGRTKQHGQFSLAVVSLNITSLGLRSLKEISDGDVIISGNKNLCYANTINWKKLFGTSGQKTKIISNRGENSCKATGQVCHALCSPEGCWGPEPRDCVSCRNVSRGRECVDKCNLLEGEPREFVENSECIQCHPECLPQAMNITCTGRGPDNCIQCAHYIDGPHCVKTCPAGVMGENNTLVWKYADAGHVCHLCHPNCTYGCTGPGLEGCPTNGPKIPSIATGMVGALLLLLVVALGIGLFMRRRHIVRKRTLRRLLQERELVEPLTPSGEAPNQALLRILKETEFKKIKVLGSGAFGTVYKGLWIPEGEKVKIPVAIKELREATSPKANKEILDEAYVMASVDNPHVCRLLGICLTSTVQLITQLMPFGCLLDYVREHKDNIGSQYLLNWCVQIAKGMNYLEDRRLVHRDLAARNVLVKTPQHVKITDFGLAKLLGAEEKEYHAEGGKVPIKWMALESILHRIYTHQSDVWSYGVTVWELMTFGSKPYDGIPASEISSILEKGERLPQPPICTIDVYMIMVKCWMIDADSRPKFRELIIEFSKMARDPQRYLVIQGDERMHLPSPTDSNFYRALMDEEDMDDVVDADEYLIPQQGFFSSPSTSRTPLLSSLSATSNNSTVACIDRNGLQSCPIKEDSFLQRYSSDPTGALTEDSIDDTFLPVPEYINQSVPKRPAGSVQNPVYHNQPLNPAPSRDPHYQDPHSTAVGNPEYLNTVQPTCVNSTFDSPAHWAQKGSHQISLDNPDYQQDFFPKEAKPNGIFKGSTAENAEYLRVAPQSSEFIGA
Sequence of Tyrosine-protein kinase BTK (Homo sapiens, UniProt Q06187, C481S) (Q06187 2-659 C481S limits assumed): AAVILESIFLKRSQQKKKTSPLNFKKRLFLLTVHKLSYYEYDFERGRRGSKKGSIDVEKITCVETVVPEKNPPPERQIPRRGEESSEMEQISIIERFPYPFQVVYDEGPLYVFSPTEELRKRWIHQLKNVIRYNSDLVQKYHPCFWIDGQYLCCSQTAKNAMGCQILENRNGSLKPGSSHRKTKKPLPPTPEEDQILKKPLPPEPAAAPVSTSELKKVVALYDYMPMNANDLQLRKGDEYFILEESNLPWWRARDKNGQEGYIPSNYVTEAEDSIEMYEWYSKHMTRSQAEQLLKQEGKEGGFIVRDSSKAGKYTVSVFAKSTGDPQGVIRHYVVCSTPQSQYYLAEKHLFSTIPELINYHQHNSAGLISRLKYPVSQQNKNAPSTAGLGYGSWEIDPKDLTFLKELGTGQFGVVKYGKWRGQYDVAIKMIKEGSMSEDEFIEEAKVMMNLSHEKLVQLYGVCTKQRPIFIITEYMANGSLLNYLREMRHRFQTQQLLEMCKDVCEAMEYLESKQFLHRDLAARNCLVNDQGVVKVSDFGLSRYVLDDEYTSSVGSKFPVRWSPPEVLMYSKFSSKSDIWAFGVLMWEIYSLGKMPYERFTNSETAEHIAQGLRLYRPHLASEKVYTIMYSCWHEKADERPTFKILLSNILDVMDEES
T1 sequence (Q06187 whole entry): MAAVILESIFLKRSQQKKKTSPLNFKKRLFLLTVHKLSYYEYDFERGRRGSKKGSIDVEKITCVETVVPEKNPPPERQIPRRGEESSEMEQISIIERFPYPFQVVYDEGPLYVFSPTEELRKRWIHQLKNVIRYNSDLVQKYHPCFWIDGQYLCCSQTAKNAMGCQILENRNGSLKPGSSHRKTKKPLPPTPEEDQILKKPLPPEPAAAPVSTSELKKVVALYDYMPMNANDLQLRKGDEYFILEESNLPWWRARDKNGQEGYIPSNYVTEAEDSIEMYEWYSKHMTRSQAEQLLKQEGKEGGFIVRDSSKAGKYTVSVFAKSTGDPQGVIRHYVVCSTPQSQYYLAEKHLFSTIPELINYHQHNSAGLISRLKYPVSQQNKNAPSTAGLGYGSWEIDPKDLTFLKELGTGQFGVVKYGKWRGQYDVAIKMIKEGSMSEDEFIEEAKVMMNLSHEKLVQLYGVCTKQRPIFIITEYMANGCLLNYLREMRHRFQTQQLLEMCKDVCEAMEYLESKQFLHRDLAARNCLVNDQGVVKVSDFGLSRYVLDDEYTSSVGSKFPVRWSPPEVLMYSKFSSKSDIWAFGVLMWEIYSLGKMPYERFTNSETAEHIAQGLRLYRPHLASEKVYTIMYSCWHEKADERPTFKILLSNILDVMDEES

| Structure (SMILES) | IC50 [1] [nM] | IC50 [2] [nM] | IC50 [3] [nM] | IC50 [4] [nM] | T1/2 [5] [h] | IC50 [6] [nM] | IC50 [7] [nM] | IC50 [8] [nM] | microsomal CLint [9] [µL/min/mg] | Papp [10] [×10⁻⁶ cm/s] | bioavailability [11] [%] |
| --- | --- | --- | --- | --- | --- | --- | --- | --- | --- | --- | --- |
| NC(=O)c1c(-c2ccc(Oc3ccc(F)cc3F)cc2)nn([C@@H]2CCCN(C(=O)/C=C/C(F)F)C2)c1N | 5840 | 115 | 8000 | 0.41 | > 24 | – | – | – | – | – | – |
| C=CC(=O)N1CCC[C@@H](n2nc(-c3ccc(Oc4ccc(F)cc4F)cc3)c(C(N)=O)c2N)C1 | 4030 | 17 | 15000 | 0.25 | > 24 | 26 | – | – | – | – | – |
| NC(=O)c1c(-c2ccc(Oc3ccc(F)cc3F)cc2)nn([C@@H]2CCCN(C(=O)/C=C/CO)C2)c1N | 4610 | 33 | 43000 | – | > 24 | 2910 | – | – | – | – | – |
| C=CC(=O)N1CCC[C@@H](n2nc(-c3ccc(Oc4ccc(Cl)cc4)cc3)c(C(N)=O)c2N)C1 | 72 | – | – | 0.18 | – | 15 | – | – | – | – | – |
| C=C(C)C(=O)N1CCC[C@@H](n2nc(-c3ccc(Oc4ccc(F)cc4F)cc3)c(C(N)=O)c2N)C1 | 3350 | 176 | – | 247 | – | > 20000 | – | – | – | – | – |
| N#CN1CCC[C@@H](n2nc(-c3ccc(Oc4ccc(Cl)cc4)cc3)c(C(N)=O)c2N)C1 | 1400 | 48 | – | – | 6 | – | 21 | 46 | < 8 | > 10 | 76 to 93 |
| NC(=O)c1c(-c2ccc(Oc3ccc(F)cc3F)cc2)nn([C@@H]2CCCN(C(=O)/C=C/CF)C2)c1N | 3140 | 90 | 49000 | 2.7 | > 24 | – | – | – | – | – | – |
| C=C(F)C(=O)N1CCC[C@@H](n2nc(-c3ccc(Oc4ccc(F)cc4F)cc3)c(C(N)=O)c2N)C1 | 6480 | 170 | 67000 | – | > 24 | 570 | – | – | – | – | – |
| N#CN1CCC[C@@H](n2nc(-c3ccc(Oc4ccc(Cl)cn4)cc3)c(C(N)=O)c2N)C1 | > 20000 | 92 | – | 6.2 | 7 | 15400 | 95 | 45 | < 8 | > 10 | 76 to 93 |
| N#CN1CCC[C@@H](n2nc(-c3ccc(Oc4cccc(C(F)(F)F)n4)cc3)c(C(N)=O)c2N)C1 | 14400 | 36 | – | – | 3 | > 20000 | 42 | 33 | < 8 | > 10 | 76 to 93 |
| CN(C)C/C=C/C(=O)N1CCC[C@@H](n2nc(-c3ccc(Oc4ccc(F)cc4F)cc3)c(C(N)=O)c2N)C1 | 370 | 65 | 15000 | 3.7 | > 24 | 149 | – | – | – | – | – |
| C/C=C/C(=O)N1CCC[C@@H](n2nc(-c3ccc(Oc4ccc(F)cc4F)cc3)c(C(N)=O)c2N)C1 | 3410 | 66 | 149000 | 61 | > 24 | > 20000 | – | – | – | – | – |
| N#CN1CCC[C@@H](n2nc(-c3ccc(Oc4ccc(F)cc4F)cc3)c(C(N)=O)c2N)C1 | 1630 | 43 | 137000 | 1.5 | 6 | 16800 | 64 | 53 | < 8 | > 10 | 76 to 93 |
| N#CN1CCC[C@@H](n2nc(-c3ccc(Oc4ncc(Cl)cc4F)cc3)c(C(N)=O)c2N)C1 | > 20000 | 230 | – | – | 5 | > 20000 | 50 | 89 | < 8 | > 10 | 76 to 93 |
| N#CN1CCC[C@@H](n2nc(-c3ccc(Oc4ccccc4)cc3)c(C(N)=O)c2N)C1 | 4.2 | 2.8 | – | 0.37 | 7 | 1710 | – | – | – | – | – |
| C=CC(=O)N1CCC[C@@H](n2nc(-c3ccc(Oc4ccccc4)cc3)c3c(N)ncnc32)C1 [IBRUTINIB] | – | – | 11000 | – | – | – | – | – | – | – | – |
